Measured values published in patent publication US10323026B2, “Heterocyclic compound” (Takeda Pharmaceutical Company Limited, priority 2016, dated 2019).

Target: T1, His-hMAGL (recombinant polyhistidine tagged human MAGL protein) (Homo sapiens, UniProt Q99685)
T1 construct: polyhistidine (His) (N); made in house; host or cells: E. coli BL21(DE3)
T1 sequence (Q99685 1-303): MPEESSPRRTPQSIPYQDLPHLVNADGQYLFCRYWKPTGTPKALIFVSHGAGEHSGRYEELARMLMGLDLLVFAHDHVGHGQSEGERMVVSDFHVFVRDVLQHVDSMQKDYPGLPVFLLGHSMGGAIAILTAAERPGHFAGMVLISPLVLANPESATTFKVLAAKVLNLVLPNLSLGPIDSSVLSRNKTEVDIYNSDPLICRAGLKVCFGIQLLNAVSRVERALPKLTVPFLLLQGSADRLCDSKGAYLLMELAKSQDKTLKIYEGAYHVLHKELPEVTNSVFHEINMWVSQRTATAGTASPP
Assay: Measurement of MAGL inhibitory activity (RapidFire-mass spectrometry of arachidonic acid produced from 2-arachidonylglycerol)
Type: biochemical
Conditions: test compound 10 μM; His-hMAGL; substrate 2-arachidonylglycerol; 60 min preincubation
Method: Furthermore, acetonitrile (50 μL) containing 3 μM arachidonic acid-d8 (Cayman Chemical Company) was added and the mixture was stirred.
The amount of arachidonic acid in the obtained enzyme reaction mixture was calculated by measuring by RapidFire-mass spectrometry and correcting by the amount of arachidonic acid-d8. High Throughput online solid phase extraction was performed using RapidFire 300™ system (Agilent Technologies, Inc.). Samples were loaded on SPE C4 cartridge (Agilent Technologies, Inc.) and desalted with 0.2 (v/v) % acetic acid (Wako Pure Chemical Industries, Ltd.) in ultrapure water/acetonitrile (70/30, v/v) at a flow rate of 1.5 mL/min, eluted at a flow rate of 0.5 mL/min with 0.2(v/v) % acetic acid dissolved in acetonitrile/ultrapure water (90/10, v/v), and injected into the mass spectrometry part. The injection needle was washed with ultrapure water (500 millisecond) and acetonitrile (500 millisecond) to minimize carry-over. […] The RapidFire300 system was controlled by RapidFire UI software version 3.6 (Agilent Technologies, Inc.).
The mass spectrometry of the resultant product was performed using API4000™ triple quadrupole mass spectrometer (AB SCIEX) equipped with an electrospray ion source (TurboIon Spray™) in a negative selected reaction monitoring (SRM) mode. The conditions of SRM are shown below. The parameters of the instrument were optimized as follows: capillary temperature 600° C., ion spray voltage −4.5 kV, collision gas 8, curtain gas 15 psi, ion source gas 1 60 psi, ion source gas 2 60 psi. The mass spectrometer was controlled by Analyst™ software version 1.5.1 (AB SCIEX). The peak area integration was analyzed using RapidFire integrator software version 3.6 (Agilent Technologies, Inc.).
MAGL inhibitory rate (%) was calculated according to the following calculation formula. (1-(arachidonic acid production amount of test compound addition group−arachidonic acid production amount of enzyme-free group)÷(arachidonic acid production amount of test compound-free group−arachidonic acid production amount of enzyme-free group))×100

In the case of `CC(Oc1c(F)cc(F)cc1F)C1CCN(C(=O)[C@H]2C[C@]3(COC(=O)N3)C2)CC1` (stereo partly shown) [Example 88, (2s,4s)-2-((4-(1-(2,4,6-trifluorophenoxy)ethyl)piperidin-1-yl)carbonyl)-7-oxa-5-azaspiro[3.4]octan-6-one], the “% inhibition (10 μM)” value is reported as 100%.

Same assay, conditions: test compound 10 μM; His-hMAGL; substrate 2-arachidonylglycerol; 60 min preincubation; 10 µM

Point of comparison: `Cc1cc(F)ccc1OC(C)C1CCN(C(=O)[C@H]2C[C@]3(COC(=O)N3)C2)CC1` (stereo partly shown) [Example 34, (2s,4s)-2-((4-(1-(4-fluoro-2-methylphenoxy)ethyl)piperidin-1-yl)carbonyl)-7-oxa-5-azaspiro[3.4]octan-6-one], “% inhibition (10 μM)” value 101%. Against it:
- CC(Oc1ccc(Cl)cc1F)C1CCN(C(=O)[C@H]2C[C@]3(COC(=O)N3)C2)CC1 (stereo partly shown) [Example 32, (2s,4s)-2-((4-(1-(4-chloro-2-fluorophenoxy)ethyl)piperidin-1-yl)carbonyl)-7-oxa-5-azaspiro[3.4]octan-6-one] — lower, 100%
- CC(Oc1cc(F)c(F)cc1F)C1CCN(C(=O)[C@H]2C[C@]3(COC(=O)N3)C2)CC1 (stereo partly shown) [Example 54, (2s,4s)-2-((4-(1-(2,4,5-trifluorophenoxy)ethyl)piperidin-1-yl)carbonyl)-7-oxa-5-azaspiro[3.4]octan-6-one] — the same, 101%
- CC(Oc1ccc(F)cc1F)C1CCN(C(=O)[C@H]2C[C@]3(COC(=O)N3)C2)CC1 (stereo partly shown) [Example 21, (2s,4s)-2-((4-(1-(2,4-difluorophenoxy)ethyl)piperidin-1-yl)carbonyl)-7-oxa-5-azaspiro[3.4]octan-6-one] — lower, 100%
- CC1(C2CCN(C(=O)[C@H]3C[C@]4(COC(=O)N4)C3)CC2)Cc2cc(C(F)(F)F)ccc2O1 (stereo partly shown) [Example 69, (2s,4s)-2-((4-(2-methyl-5-(trifluoromethyl)-2,3-dihydro-1-benzofuran-2-yl)piperidin-1-yl)carbonyl)-7-oxa-5-azaspiro[3.4]octan-6-one] — the same, 101%
- CC(Oc1cc(F)c(F)cc1F)C1CCN(C(=O)[C@H]2C[C@]3(COC(=O)N3)C2)CC1 (stereo partly shown) [Example 55, (2s,4s)-2-((4-(1-(2,4,5-trifluorophenoxy)ethyl)piperidin-1-yl)carbonyl)-7-oxa-5-azaspiro[3.4]octan-6-one] — lower, 100%
- CC1(C2CCN(C(=O)[C@H]3C[C@]4(COC(=O)N4)C3)CC2)Cc2cc(C(F)(F)F)ccc2O1 (stereo partly shown) [Example 68, (2s,4s)-2-((4-(2-methyl-5-(trifluoromethyl)-2,3-dihydro-1-benzofuran-2-yl)piperidin-1-yl)carbonyl)-7-oxa-5-azaspiro[3.4]octan-6-one] — lower, 100%
- CC(Oc1ccc(F)c(F)c1F)C1CCN(C(=O)[C@H]2C[C@]3(COC(=O)N3)C2)CC1 (stereo partly shown) [Example 81, (2s,4s)-2-((4-(1-(2,3,4-trifluorophenoxy)ethyl)piperidin-1-yl)carbonyl)-7-oxa-5-azaspiro[3.4]octan-6-one] — lower, 100%
- CC1(C2CCN(C(=O)[C@H]3C[C@]4(COC(=O)N4)C3)CC2)Cc2ccc(C(F)(F)F)cc2O1 (stereo partly shown) [Example 71, (2s,4s)-2-((4-(2-methyl-6-(trifluoromethyl)-2,3-dihydro-1-benzofuran-2-yl)piperidin-1-yl)carbonyl)-7-oxa-5-azaspiro[3.4]octan-6-one] — the same, 101%

Same assay, conditions: test compound 10 μM; His-hMAGL; substrate 2-arachidonylglycerol; 60 min preincubation; read-out: % inhibition (10 μM)

Point of comparison: `CC1(C2CCN(C(=O)[C@H]3C[C@]4(COC(=O)N4)C3)CC2)Cc2cc(F)cc(Cl)c2O1` (stereo partly shown) [Example 27, (2s,4s)-2-((4-(7-chloro-5-fluoro-2-methyl-2,3-dihydro-1-benzofuran-2-yl)piperidin-1-yl)carbonyl)-7-oxa-5-azaspiro[3.4]octan-6-one], inhibition at 10 µM 101%. Against it:
- CC(Oc1ccc(C(F)(F)F)cc1F)C1CN(C(=O)[C@H]2C[C@]3(COC(=O)N3)C2)C1 (stereo partly shown) [Example 10, (2s,4s)-2-((3-(1-(2-fluoro-4-(trifluoromethyl)phenoxy)ethyl)azetidin-1-yl)carbonyl)-7-oxa-5-azaspiro[3.4]octan-6-one] — lower, 100%
- O=C1N[C@]2(CO1)C[C@H](C(=O)N1CCC(COc3ccc(C(F)(F)F)cc3F)CC1)C2 [Example 26, (2s,4s)-2-((4-((2-fluoro-4-(trifluoromethyl)phenoxy)methyl)piperidin-1-yl)carbonyl)-7-oxa-5-azaspiro[3.4]octan-6-one] — the same, 101%
- CC(Oc1cc(F)c(F)cc1F)C1CCN(C(=O)[C@H]2C[C@]3(COC(=O)N3)C2)CC1 (stereo partly shown) [Example 40, (2s,4s)-2-((4-(1-(2,4,5-trifluorophenoxy)ethyl)piperidin-1-yl)carbonyl)-7-oxa-5-azaspiro[3.4]octan-6-one] — the same, 101%
- O=C1N[C@]2(CO1)C[C@H](C(=O)N1CC(OCc3cc(F)c(C(F)(F)F)cc3F)C1)C2 [Example 101, (2s,4s)-2-((3-((2,5-difluoro-4-(trifluoromethyl)benzyl)oxy)azetidin-1-yl)carbonyl)-7-oxa-5-azaspiro[3.4]octan-6-one] — lower, 100%
- O=C1COC[C@]2(C[C@H](C(=O)N3CCC(COc4ccc(F)cc4Cl)CC3)C2)N1 [Example 25, (2s,4s)-2-((4-((2-chloro-4-fluorophenoxy)methyl)piperidin-1-yl)carbonyl)-8-oxa-5-azaspiro[3.5]nonan-6-one] — lower, 100%
- O=C1N[C@]2(CO1)C[C@H](C(=O)N1CC(CC(F)(F)c3ccc(F)c(C(F)(F)F)c3)C1)C2 [Example 100, (2s,4s)-2-((3-(2,2-difluoro-2-(4-fluoro-3-(trifluoromethyl)phenyl)ethyl)azetidin-1-yl)carbonyl)-7-oxa-5-azaspiro[3.4]octan-6-one] — lower, 100%
- CC(Oc1ccc(F)c(F)c1F)C1CCN(C(=O)[C@H]2C[C@]3(CCC(=O)N3)C2)CC1 (stereo partly shown) [Example 74, (2r,4s)-2-((4-(1-(2,3.4-trifluorophenoxy)ethyl)piperidin-1-yl)carbonyl)-5-azaspiro[3.4]octan-6-one] — the same, 101%
- O=C1N[C@]2(CO1)C[C@H](C(=O)N1CCC(C3(C(F)(F)F)Cc4cc(F)ccc4O3)CC1)C2 (stereo partly shown) [Example 58, (2s,4s)-2-((4-(5-fluoro-2-(trifluoromethyl)-2,3-dihydro-1-benzofuran-2-yl)piperidin-1-yl)carbonyl)-7-oxa-5-azaspiro[3.4]octan-6-one] — lower, 100%
- CC(Oc1ccc(F)cc1F)C1CCN(C(=O)[C@H]2C[C@]3(COC(=O)N3)C2)CC1 (stereo partly shown) [Example 15, (2s,4s)-2-((4-(1-(2,4-difluorophenoxy)ethyl)piperidin-1-yl)carbonyl)-7-oxa-5-azaspiro[3.4]octan-6-one] — lower, 100%
- O=C1N[C@]2(CO1)C[C@H](C(=O)N1CC(/C=C(\F)c3ccc(C(F)(F)F)c(F)c3F)C1)C2 [Example 104, (2s,4s)-2-((3-((Z)-2-(2,3-difluoro-4-(trifluoromethyl)phenyl)-2-fluorovinyl)azetidin-1-yl)carbonyl)-7-oxa-5-azaspiro[3.4]octan-6-one] — lower, 100%
- O=C1N[C@]2(CO1)C[C@H](C(=O)N1CC(COc3ccc(C(F)(F)F)cc3F)C1)C2 [Example 9, (2s,4s)-2-((3-((2-fluoro-4-(trifluoromethyl)phenoxy)methyl)azetidin-1-yl)carbonyl)-7-oxa-5-azaspiro[3.4]octan-6-one] — lower, 100%
- N#Cc1ccc(OCC2CCN(C(=O)[C@H]3C[C@]4(COC(=O)N4)C3)CC2)c(Cl)c1 [Example 130, 3-chloro-4-((1-(((2s,4s)-6-oxo-7-oxa-5-azaspiro[3.4]oct-2-yl)carbonyl)piperidin-4-yl)methoxy)benzonitile] — lower, 100%
- CC1(C(F)(F)c2ccc(F)cc2Cl)CCN(C(=O)[C@H]2C[C@]3(COC(=O)N3)C2)CC1 [Example 52, (2s,4s)-2-((4-((2-chloro-4-fluorophenyl)(difluoro)methyl)-4-methylpiperidin-1-yl)carbonyl)-7-oxa-5-azaspiro[3.4]octan-6-one] — lower, 100%
- CC(Oc1ccc(Cl)cc1F)C1CCN(C(=O)[C@H]2C[C@]3(CCC(=O)N3)C2)CC1 (stereo partly shown) [Example 17, (2r,4s)-2-((4-(1-(4-chloro-2-fluorophenoxy)ethyl)piperidin-1-yl)carbonyl)-5-azaspiro[3.4]octan-6-one] — lower, 100%
